The supplement of paper PMC11061612

What was measured:
Test in all cases: Bliss excess, mean over the matrix (fraction); higher = more synergy
[1] = test system: DiFi (Colorectal Carcinoma)
Summary of the method: (§1)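 After 24 hours at 37°C and 5% CO2 in 1536-well plates, cells in DMEM/F12 or RPMI plus 10% FBS received two-drug dose matrices for 72 hours. Viability came from CellTiter-Glo 2.0 luminescence and was scaled as inhibition, anchored at 0 by vehicle wells and at 1 by blank wells. Combination Emax is taken as the second-highest inhibition in the matrix, and Bliss excess as the observed combination effect less EA + EB − EA·EB, with EA and EB the single-agent effects.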

ES8 (Ewing's Sarcoma) = test system: ES8 (Ewing's Sarcoma)
Summary of the method: as §1

[2] = test system: EVSA-T (Breast Carcinoma)
Summary of the method: as §1

[3] = test system: GR-ST (B-Lymphoblastic Leukemia)
Summary of the method: as §1

[4] = test system: HL-60 (Acute Myeloid Leukemia)
Summary of the method: as §1

[5] = test system: K-562 (Chronic Myelogenous Leukemia)
Summary of the method: as §1

[6] = test system: KCL-22 (Chronic Myelogenous Leukemia)
Summary of the method: as §1

[7] = test system: KYSE-180 (Esophageal Squamous Cell Carcinoma)
Summary of the method: as §1

LN-18 (Glioblastoma) = test system: LN-18 (Glioblastoma)
Summary of the method: as §1

[8] = test system: MFM-223 (Breast Carcinoma)
Summary of the method: as §1

[9] = test system: MKN28 (Gastric Carcinoma)
Summary of the method: as §1

[10] = test system: MOLT-16 (T-Lymphoblastic Leukemia)
Summary of the method: as §1

[11] = test system: NCI-H1792 (Lung Adenocarcinoma)
Summary of the method: as §1

[12] = test system: NCI-H847 (Small Cell Lung Carcinoma)
Summary of the method: as §1

[13] = test system: P12-ICHIKAWA (T-Lymphoblastic Leukemia)
Summary of the method: as §1

[14] = test system: PANC-08-13 (Pancreatic Carcinoma)
Summary of the method: as §1

[15] = test system: SR (Other Blood Carcinomas)
Summary of the method: as §1

TC-71 (Ewing's Sarcoma) = test system: TC-71 (Ewing's Sarcoma)
Summary of the method: as §1

[16] = test system: TE-6 (Esophageal Squamous Cell Carcinoma)
Summary of the method: as §1

WM-115 (Melanoma) = test system: WM-115 (Melanoma)
Summary of the method: as §1

Row | SMILES | Bliss excess [1] | Bliss excess (ES8 (Ewing's Sarcoma)) | Bliss excess [2] | Bliss excess [3] | Bliss excess [4] | Bliss excess [5] | Bliss excess [6] | Bliss excess [7] | Bliss excess (LN-18 (Glioblastoma)) | Bliss excess [8] | Bliss excess [9] | Bliss excess [10] | Bliss excess [11] | Bliss excess [12] | Bliss excess [13] | Bliss excess [14] | Bliss excess [15] | Bliss excess (TC-71 (Ewing's Sarcoma)) | Bliss excess [16] | Bliss excess (WM-115 (Melanoma))
1 | Cc1c2c(nn1C)CSCc1cc(n(C)n1)CSc1cc(c3ccccc3c1)OCCCc1c(C(=O)O)n(C)c3c-2c(Cl)ccc13 [AZD5991] + C[C@@H]1COCCN1C2=NC(=NC(=C2)C3(CC3)[S@](=N)(=O)C)C4=C5C=CNC5=NC=C4 [AZD6738] (first compound max 1 µM, 7x7, partner max 10 µM) | 0.0302 | 0.0029 | -0.0015 | -0.129 | -0.0069 | -0.0091 | -0.0163 | 0.0821 | 0.037 | 0.0601 | 0.0118 | 0.0043 | 0.0332 | 0.0145 | 0.0312 | 0.0337 | 0.0941 | 0.0554 | 0.0298 | 0.0041
2 | Cc1c2c(nn1C)CSCc1cc(n(C)n1)CSc1cc(c3ccccc3c1)OCCCc1c(C(=O)O)n(C)c3c-2c(Cl)ccc13 [AZD5991] + Cc1cc2ncnn2cc1Nc1ncc2c(n1)n(C1CCOCC1)c(=O)n2C [AZD7648] (first compound max 1 µM, 7x7, partner max 10 µM) | -0.0448 | 0.0038 | -0.0156 | -0.149 | 0.0014 | 0.0044 | -0.0086 | -0.0126 | -0.025 | -0.0361 | 0.0046 | -0.023 | -0.0248 | 0.0083 | -0.0167 | 0.0012 | 0.0257 | -0.0745 | -0.0874 | -0.11
3 | Cc1c2c(nn1C)CSCc1cc(n(C)n1)CSc1cc(c3ccccc3c1)OCCCc1c(C(=O)O)n(C)c3c-2c(Cl)ccc13 [AZD5991] + Cn1cnc2c(F)c(Nc3ccc(Br)cc3Cl)c(C(=O)NOCCO)cc21 [Selumetinib] (first compound max 1 µM, 7x7, partner max 3 µM) | 0.0064 | -0.0171 | 0.0136 | -0.0495 | 0.0587 | 0.0393 | 0.078 | 0.0341 | 0.0745 | -0.0199 | -0.0063 | -0.0205 | 0.0347 | 0.042 | 0.0419 | 0.0025 | -0.0007 | 0.093 | 0.0043 | -0.0114
4 | COc1cccc(OCCCN)c1-c1cc(Nc2cnc(C#N)cn2)n[nH]1 [Prexasertib] + CCc1c2c(nc3ccc(O)cc13)-c1cc3c(c(=O)n1C2)COC(=O)[C@]3(O)CC [SN-38] (first compound max 1 µM, 7x7, partner max 0.3 µM) | -0.0153 | -0.0301 | 0.224 | -0.106 | -0.0203 | 0.0726 | 0.0175 | 0.0525 | 0.07 | 0.05 | -0.0082 | 0.0103 | 0.0204 | 0.055 | -0.0253 | 0.0182 | -0.0378 | 0.0187 | 0.128 | -0.0492
5 | CC(=O)Nc1cccc(-n2c(=O)n(C3CC3)c(=O)c3c(Nc4ccc(I)cc4F)n(C)c(=O)c(C)c32)c1 [Trametinib] + Cc1nc(-c2cn3c(n2)-c2ccc(-c4cnn(C(C)(C)C(N)=O)c4)cc2OCC3)n(C(C)C)n1 [Taselisib] (first compound max 1 µM, 7x7, partner max 10 µM) | 0.107 | -0.0924 | -0.0335 | -0.0059 | 0.228 | 0.151 | 0.292 | 0.0886 | 0.0432 | -0.0174 | 0.0966 | 0.006 | 0.109 | 0.0603 | 0.267 | 0.132 | 0.22 | 0.136 | 0.0911 | 0.048
6 | CC1(C)CCC(CN2CCN(c3ccc(C(=O)NS(=O)(=O)c4ccc(NCC5CCOCC5)c([N+](=O)[O-])c4)c(Oc4cnc5[nH]ccc5c4)c3)CC2)=C(c2ccc(Cl)cc2)C1 [Venetoclax] + C1CN(CCC1(C(=O)N[C@@H](CCO)C2=CC=C(C=C2)Cl)N)C3=NC=NC4=C3C=CN4 [Capivasertib] (first compound max 1 µM, 7x7, partner max 3 µM) | -0.022 | -0.0933 | -0.0371 | -0.0382 | 0.0198 | -0.0902 | 0.0015 | -0.0208 | -0.0374 | -0.0258 | -0.0455 | 0.0937 | -0.0549 | 0.0062 | 0.0039 | -0.0608 | -0.0142 | -0.0684 | 0.0217 | -0.0785
7 | CC1(C)CCC(CN2CCN(c3ccc(C(=O)NS(=O)(=O)c4ccc(NCC5CCOCC5)c([N+](=O)[O-])c4)c(Oc4cnc5[nH]ccc5c4)c3)CC2)=C(c2ccc(Cl)cc2)C1 [Venetoclax] + C=CCn1c(=O)c2cnc(Nc3ccc(N4CCN(C)CC4)cc3)nc2n1-c1cccc(C(C)(C)O)n1 [AZD1775] (first compound max 1 µM, partner max 1 µM) | -0.0222 | 0.0309 | 0.0075 | -0.0109 | -0.0175 | 0.0486 | -0.0114 | 0.0264 | 0.0062 | -0.0987 | -0.0029 | 0.143 | 0.0479 | -0.0022 | 0.0117 | -0.0153 | 0.062 | -0.0215 | -0.0859 | -0.0465
8 | CC1(C)CCC(CN2CCN(c3ccc(C(=O)NS(=O)(=O)c4ccc(NCC5CCOCC5)c([N+](=O)[O-])c4)c(Oc4cnc5[nH]ccc5c4)c3)CC2)=C(c2ccc(Cl)cc2)C1 [Venetoclax] + CCN(CCO)CCCOc1ccc2c(Nc3cc(CC(=O)Nc4cccc(F)c4)[nH]n3)ncnc2c1 [AZD2811] (first compound max 1 µM, 7x7, partner max 1 µM) | -0.098 | 0.0092 | 0.0485 | -0.0505 | -0.0385 | -0.0236 | 0.0709 | 0.0453 | -0.0146 | 0.0084 | -0.0257 | 0.0239 | 0.0122 | 0.112 | -0.0612 | -0.0269 | 0.0073 | 0.0227 | -0.0112 | -0.0138
9 | CC1(C)CCC(CN2CCN(c3ccc(C(=O)NS(=O)(=O)c4ccc(NCC5CCOCC5)c([N+](=O)[O-])c4)c(Oc4cnc5[nH]ccc5c4)c3)CC2)=C(c2ccc(Cl)cc2)C1 [Venetoclax] + CN(C)CCCOc1ccc(-c2ccc3ncc4c(c3c2)n(C2CCOCC2)c(=O)n4C)cn1 [AZD0156] (first compound max 1 µM, 7x7, partner max 1 µM) | 0.0216 | 0.0212 | -0.0005 | -0.0363 | 0.0448 | -0.0005 | 0.0042 | -0.0128 | -0.0488 | -0.0313 | 0.0042 | 0.0462 | 0.0133 | 0.037 | 0.0509 | 0.0037 | -0.0266 | -0.0022 | 0.0055 | -0.0314
10 | CC1(C)CCC(CN2CCN(c3ccc(C(=O)NS(=O)(=O)c4ccc(NCC5CCOCC5)c([N+](=O)[O-])c4)c(Oc4cnc5[nH]ccc5c4)c3)CC2)=C(c2ccc(Cl)cc2)C1 [Venetoclax] + COc1cc(Nc2ncc3c(n2)-c2ccc(Cl)cc2C(c2c(F)cccc2OC)=NC3)ccc1C(=O)O [Alisertib] (first compound max 1 µM, 7x7, partner max 10 µM) | 0.0661 | -0.104 | 0.0434 | 0.0444 | 0.0894 | 0.0498 | 0.163 | 0.0114 | 0.0481 | -0.0077 | -0.0541 | 0.0623 | 0.0603 | 0.0304 | -0.0398 | -0.032 | 0.013 | 0.0868 | 0.0047 | -0.0539
11 | CC1(C)CCC(CN2CCN(c3ccc(C(=O)NS(=O)(=O)c4ccc(NCC5CCOCC5)c([N+](=O)[O-])c4)c(Oc4cnc5[nH]ccc5c4)c3)CC2)=C(c2ccc(Cl)cc2)C1 [Venetoclax] + C[C@@H]1COCCN1C2=NC(=NC(=C2)C3(CC3)[S@](=N)(=O)C)C4=C5C=CNC5=NC=C4 [AZD6738] (first compound max 1 µM, 7x7, partner max 10 µM) | -0.0183 | 0.004 | 0.0144 | -0.2 | -0.0656 | -0.0039 | -0.0088 | -0.0173 | -0.0469 | -0.0604 | -0.009 | -0.0319 | -0.018 | 0.0082 | 0.0418 | -0.0482 | -0.0139 | -0.0299 | -0.0127 | -0.119
12 | CC1(C)CCC(CN2CCN(c3ccc(C(=O)NS(=O)(=O)c4ccc(NCC5CCOCC5)c([N+](=O)[O-])c4)c(Oc4cnc5[nH]ccc5c4)c3)CC2)=C(c2ccc(Cl)cc2)C1 [Venetoclax] + C[C@@H](Nc1cc(F)cc(F)c1)c1cc(C(=O)N(C)C)cc2c(=O)cc(N3CCOCC3)oc12 [AZD8186] (first compound max 1 µM, 7x7, partner max 3 µM) | -0.021 | -0.0777 | 0.0269 | -0.0713 | 0.0249 | 0.038 | 0.0129 | -0.0031 | -0.0273 | -0.0187 | -0.0248 | 0.0388 | -0.035 | 0.106 | -0.0097 | -0.031 | -0.027 | -0.0381 | -0.04 | -0.0112
13 | CC1(C)CCC(CN2CCN(c3ccc(C(=O)NS(=O)(=O)c4ccc(NCC5CCOCC5)c([N+](=O)[O-])c4)c(Oc4cnc5[nH]ccc5c4)c3)CC2)=C(c2ccc(Cl)cc2)C1 [Venetoclax] + Cc1cc2ncnn2cc1Nc1ncc2c(n1)n(C1CCOCC1)c(=O)n2C [AZD7648] (first compound max 1 µM, 7x7, partner max 10 µM) | -0.0389 | -0.0817 | -0.0394 | -0.0513 | 0.0582 | -0.0011 | 0.0097 | 0.0053 | 0.045 | -0.0672 | -0.011 | 0.0704 | -0.0591 | 0.0002 | 0.0424 | -0.0576 | -0.0115 | -0.0333 | -0.0041 | -0.038
